What all share (conditions): read-out: Melibiose displacement of D ^ 2 G (IC 50); 10 μM D2G, 20 mM NaCl, 100 mM KPi pH 7.5
Test [1] concerns the target MelBSt (WT) (Salmonella enterica, UniProt P30878, L5M/R295C).
Test [2] has as its target MelBSt (WT) (Salmonella enterica, UniProt P30878, L5M/R363C).
Test [3] has as its target MelBSt (WT) (Salmonella enterica, UniProt P30878, L5M/R141C).
Test [4] concerns the target MelBSt (WT) (Salmonella enterica, UniProt P30878, L5M).

In the case of `OC[C@H]1O[C@H](OC[C@H]2OC(O)[C@H](O)[C@@H](O)[C@@H]2O)[C@H](O)[C@@H](O)[C@H]1O` (stereo partly shown) [melibiose], the IC50 was 4.04 ± 0.42 mM on MelBSt (WT) [1], 2.83 ± 0.57 mM at MelBSt (WT) [2], 5.93 ± 1.61 mM on MelBSt (WT) [3] and 2.65 ± 0.8 mM on MelBSt (WT) [4].

These data come from publication PMC4026327 (Nature Communications, 2014).
